Results published in patent publication US11680050B2, “Crystalline forms of ozanimod and ozanimod hydrochloride, and processes for preparation thereof” (RECEPTOS LLC, priority 2016, dated 2023).
In brackets after ≈: the same amount, converted by molar mass. Structures can show the parent of a compound that is named as a salt.

Assays:
Assay type in all cases: physicochemical
[1] = Hygroscopicity assessment by dynamic vapor sorption (DVS); details: for Hygroscopicity class according to the definition of hygroscopicity: Chinese Pharmacopoeia 2015, 25° C., 80% RH; for Weight gain under 80% RH: DVS, 25° C.
Protocol: Dynamic Vapor Sorption (DVS) is measured via an SMS (Surface Measurement Systems Ltd.) intrinsic DVS. Typical Parameters for DVS test are as follows:
Gas and flow rate: N2, 200 mL/min
RH range: 0% RH to 95% RH […]
Dynamic vapor sorption (DVS) was applied to test hygroscopicity of Form CS1 of ozanimod hydrochloride with about 10 mg of samples.
Description and definition of hygroscopicity (Chinese Pharmacopoeia 2015 edition appendix Drug hygroscopic test guidelines, test at 25° C.+/−1° C., 80% RH). • deliquescent: Sufficient water is absorbed to form a liquid; • very hygroscopic: Increase in mass is equal to or greater than 15 percent; • hygroscopic: Increase in mass is less than 15 percent and equal to or greater than 2 percent; • slightly hygroscopic: Increase in mass is less than 2 percent and equal to or greater than 0.2 percent. • non hygroscopic or almost non hygroscopic: Increase in mass is less than 0.2 percent.

[2] = Stability assessment in constant temperature and humidity chambers (HPLC purity, XRPD crystalline form); details: for 1 week purity % / 2 week purity % / 4 week purity %: HPLC; for 2 week purity %: 2 weeks; for Change of the crystalline form: XRPD; for Stability, overall conclusion of the storage test: after storage under all conditions tested for the form
Protocol: (§1) Three solid samples of Form CS1 were placed in constant temperature and humidity chambers at 25° C./60% RH, 40° C./75% RH and 60° C./75% RH for 4 weeks. XRPD was used to test the crystalline form at the end of week 4. HPLC was used to measure the chemical purity at the end of week 1, 2, and 4. The XRPD comparison result is shown in FIG. 31 (from top to bottom: XRPD pattern of Form CS1 before and after being stored under 25° C./60% RH, 40° C./75% RH and 60° C./75% RH for 4 weeks), and the results are shown in Table 20.
as §1, with “Four” for “Three”, “CS2” for “CS1”, “weeks and 80° C. for 1 week.” for “weeks.”, “32” for “31”, “weeks and 80° C. for 1 week),” for “weeks),”, “21.” for “20.”
as §1, with “Form CS3” for “Form CS1”, “comparison pattern” for “comparison result”, “FIG. 33” for “FIG. 31”, “Table 22.” for “Table 20.”
as §1, with “Form CS5” for “Form CS1”, “for 2” for “for 4”, “[…].” for “4. HPLC was used to measure the chemical purity at the end of week 1, 2, and 4.”, “comparison pattern” for “comparison result”, “FIG. 34” for “FIG. 31”, “Table 23.” for “Table 20.”
Two samples of Form CS6 were placed in constant temperature and humidity chambers at 25° C./60% RH and 40° C./75% RH for 4 weeks. XRPD was used to test the crystalline form at the end of week 4. HPLC was used to measure the chemical purity at the end of week 1, 2, and 4.The XRPD comparison result is shown in FIG. 35 (from top to bottom: XRPD pattern of Form CS6 before and after being stored under 25° C./60% RH and 40° C./75% RH for 4 weeks), and the results are shown in Table 24.
Four samples of Form CS1 of ozanimod hydrochloride were placed in constant temperature and humidity chambers at 25° C./60% RH, 40° C./75% RH and 60° C./75% RH for 4 weeks and 80° C. for 1 week. XRPD was used to test the crystalline form at the end of week 4. HPLC was used to measure the chemical purity at the end of week 1, 2, and 4. The XRPD comparison pattern is shown in FIG. 36 (from top to bottom: XRPD pattern of ozanimod hydrochloride Form CS1 before and after being stored under 25° C./60% RH, 40° C./75% RH and 60° C./75% RH for 4 weeks and 80° C. for 1 week), and the results are shown in Table 25.

[3] = Particle size distribution test (laser particle size analyzer, wet process); details: for MV, average particle size calculated by volume: dispersion medium Isopar G; for D10 / D50 (median diameter) / D90: volume distribution, Isopar G
Protocol: The particle size distribution test in the present disclosure is acquired by the S3500 laser particle size analyzer of Microtrac. Microtrac S3500 is equipped with the SDC (Sample Delivery Controller). The test is carried out by wet process, and the dispersion medium is Isopar G The parameters are as follow:
Certain amount of samples of Form CS1, Form CS2, Form CS3, Form CS5, Form CS6 of ozanimod and Form CS1 of ozanimod hydrochloride were taken for particle size distribution test.

[4] = Solubility assessment of saturated solutions in SGF, FeSSIF and water, measured by HPLC
Protocol: Form CS1 and Form CS1 of ozanimod hydrochloride were suspended into SGF (Simulated gastric fluids) and FeSSIF (Fed state simulated intestinal fluids, pH=5.0) to obtain saturated solutions. After being equilibrated for 1 h, 4 h and 24 h, concentrations of the saturated solutions were measured by HPLC.
Form CS3 and Form CS5 were suspended into SGF (Simulated gastric fluids) and water, and Form CS2 was suspended into FeSSIF (Fed state simulated intestinal fluids) to obtain saturated solutions. After being equilibrated for 1 h, 4 h and 24 h, concentrations of the saturated solutions were measured by HPLC.

[5] = Mechanical stability, manual grinding for 5 minutes in mortar, XRPD; details: ground manually for 5 minutes, XRPD before and after
Protocol: Solid samples of Form CS3, Form CS5, Form CS6 of ozanimod and Form CS1 of ozanimod hydrochloride were ground manually for 5 minutes in mortar.

## CC(C)Oc1ccc(-c2nc(-c3cccc4c3CC[C@@H]4NCCO)no2)cc1C#N [Form CS1 of ozanimod hydrochloride, ozanimod hydrochloride]
[1]
  Hygroscopicity class according to the definition of hygroscopicity: slightly hygroscopic (Increase in mass is less than 2 percent and equal to or greater than 0.2 percent)
[1]; hydrochloride
  Weight gain under 80% RH: 0.55%
[1]; listed as ozanimod hydrochloride Form CS1, hydrochloride
  Weight gain under 80% RH: 0.55%
[2]; 25° C./60% RH, 1 week, hydrochloride
  1 week purity %: 99.18%
[2]; 25° C./60% RH, hydrochloride
  2 week purity %: 99.13%
[2]; 25° C./60% RH, 4 weeks, hydrochloride
  4 week purity %: 99.22%
[2]; 25° C./60% RH, 4 weeks
  Change of the crystalline form: No change
[2]; 40° C./75% RH, 1 week, hydrochloride
  1 week purity %: 99.15%
[2]; 40° C./75% RH, hydrochloride
  2 week purity %: 99.12%
[2]; 40° C./75% RH, 4 weeks, hydrochloride
  4 week purity %: 99.24%
[2]; 40° C./75% RH, 4 weeks
  Change of the crystalline form: No change
[2]; 60° C./75% RH, 1 week, hydrochloride
  1 week purity %: 99.25%
[2]; 60° C./75% RH, hydrochloride
  2 week purity %: 99.25%
[2]; 60° C./75% RH, 4 weeks, hydrochloride
  4 week purity %: 99.36%
[2]; 60° C./75% RH, 4 weeks
  Change of the crystalline form: No change
[2]; 80° C., 1 week, hydrochloride
  1 week purity %: 99.34%
[2]; 80° C., 1 week
  Change of the crystalline form: No change
[2]
  Stability, overall conclusion of the storage test: good stability
[3]; hydrochloride
  MV, average particle size calculated by volume: 200.7 μm
  D10: 20.84 μm
  D50 (median diameter): 180.8 μm
  D90: 397.7 μm
[4]; FeSSIF (pH=5.0), 4 h, hydrochloride
  Solubility: 1.5 mg/mL
[5]
  Form change under mechanical stress: No form change

## CC(C)Oc1ccc(-c2nc(-c3cccc4c3CC[C@@H]4NCCO)no2)cc1C#N [Form CS1, ozanimod]
[1]
  Hygroscopicity class according to the definition of hygroscopicity: slightly hygroscopic (Increase in mass is less than 2 percent and equal to or greater than 0.2 percent)
  Weight gain under 80% RH: 0.36%
[2]; 25° C./60% RH, 1 week
  1 week purity %: 99.12%
[2]; 25° C./60% RH
  2 week purity %: 99.18%
[2]; 25° C./60% RH, 4 weeks
  4 week purity %: 98.97%
  Change of the crystalline form: No change
[2]; 40° C./75% RH, 1 week
  1 week purity %: 99.16%
[2]; 40° C./75% RH
  2 week purity %: 99.17%
[2]; 40° C./75% RH, 4 weeks
  4 week purity %: 98.92%
  Change of the crystalline form: No change
[2]; 60° C./75% RH, 1 week
  1 week purity %: 99.26%
[2]; 60° C./75% RH
  2 week purity %: 99.13%
[2]; 60° C./75% RH, 4 weeks
  4 week purity %: 98.71%
  Change of the crystalline form: No change
[2]
  Stability, overall conclusion of the storage test: good stability
[3]
  MV, average particle size calculated by volume: 22.40 μm
  D10: 3.15 μm
  D50 (median diameter): 11.20 μm
  D90: 48.90 μm
[4]; FeSSIF (pH=5.0), 1 h
  Solubility: 4.2 mg/mL (≈ 10.4 mM)
[4]; FeSSIF (pH=5.0), 4 h
  Solubility: 7.3 mg/mL (≈ 18 mM)
[4]; SGF, 1 h
  Solubility: 6.4 mg/mL (≈ 15.8 mM)
[4]; SGF, 4 h
  Solubility: 6.3 mg/mL (≈ 15.6 mM)
[4]; SGF, 24 h
  Solubility: 5.9 mg/mL (≈ 14.6 mM)
[4]; fed state simulated intestinal fluid (FeSSIF), pH 5, fessif, thermodynamic from solid, FeSSIF (pH=5.0), 24 h
  solubility at 24 h: 7.7 mg/mL (≈ 19 mM)

## CC(C)Oc1ccc(-c2nc(-c3cccc4c3CC[C@@H]4NCCO)no2)cc1C#N [Form CS2, ozanimod]
[1]
  Hygroscopicity class according to the definition of hygroscopicity: slightly hygroscopic (Increase in mass is less than 2 percent and equal to or greater than 0.2 percent)
  Weight gain under 80% RH: 0.25%
[2]; 25° C./60% RH, 1 week
  1 week purity %: 99.85%
[2]; 25° C./60% RH
  2 week purity %: 99.63%
[2]; 25° C./60% RH, 4 weeks
  4 week purity %: 99.62%
  Change of the crystalline form: No change
[2]; 40° C./75% RH, 1 week
  1 week purity %: 99.84%
[2]; 40° C./75% RH
  2 week purity %: 99.78%
[2]; 40° C./75% RH, 4 weeks
  4 week purity %: 99.55%
  Change of the crystalline form: No change
[2]; 60° C./75% RH, 1 week
  1 week purity %: 99.91%
[2]; 60° C./75% RH
  2 week purity %: 99.60%
[2]; 60° C./75% RH, 4 weeks
  4 week purity %: 99.63%
  Change of the crystalline form: No change
[2]; 80° C., 1 week
  1 week purity %: 99.71%
  Change of the crystalline form: No change
[2]
  Stability, overall conclusion of the storage test: good stability
[3]
  MV, average particle size calculated by volume: 23.24 μm
  D10: 5.78 μm
  D50 (median diameter): 14.20 μm
  D90: 42.35 μm
[4]; FeSSIF (pH=5.0), 1 h
  Solubility: 2.0 mg/mL (≈ 4.94 mM)

## CC(C)Oc1ccc(-c2nc(-c3cccc4c3CC[C@@H]4NCCO)no2)cc1C#N [Form CS6, ozanimod]
[1]
  Weight gain under 80% RH: 1.68%
[2]; 25° C./60% RH, 1 week
  1 week purity %: 98.44%
[2]; 25° C./60% RH
  2 week purity %: 98.21%
[2]; 25° C./60% RH, 4 weeks
  4 week purity %: 98.27%
  Change of the crystalline form: No change
[2]; 40° C./75% RH, 1 week
  1 week purity %: 98.47%
[2]; 40° C./75% RH
  2 week purity %: 98.33%
[2]; 40° C./75% RH, 4 weeks
  4 week purity %: 97.97%
  Change of the crystalline form: No change
[2]
  Stability, overall conclusion of the storage test: good stability
[3]
  MV, average particle size calculated by volume: 68.91 μm
  D10: 12.87 μm
  D50 (median diameter): 46.47 μm
  D90: 161.7 μm
[5]
  Form change under mechanical stress: No form change
